Results on 42 molecules are retold here after patent publication EP4737450A1 (Longwood Pharmaceuticals (Hangzhou) Co., Ltd, priority 2023, dated 2025).

Structures are written as SMILES. Read-outs that look alike come from different tables or passages of the source. Bounds are passed on as bounds.

One test addresses T1, plasma kallikrein (PKa) (Homo sapiens, UniProt P03952).
T1 construct: purchased R & D 2497-SE
The test can be described thus: Inhibitory activity against plasma kallikrein in vitro (fluorescence intensity enzyme assay, Pro-Phe-Arg-AMC substrate). The format is biochemical. Summed up:
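Fluorescence intensity enzyme assay with 10 nM enzyme and 60 µM Pro-Phe-Arg-AMC (final concentrations). Compounds in DMSO, tested in duplicate over a dose series. IC50 from nonlinear regression curve fitting.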

The next test deals with FXIa (Homo sapiens, UniProt P03951). The test can be described thus: Inhibitory activity against FXIa in vitro (biochemical assay). As to conditions: values given in µM. The protocol:
Test Example 1. Test of the inhibitory activities of the compounds of the present invention against plasma kallikrein (PKa), KLK1 and FXIa in vitro.
PKK (R & D, Cat # 2497-SE) and Pro-Phe-Arg-AMC (Nanjing Peptide, Cat # NJP23946) solutions were prepared in reaction buffer (50 mM Tris-HCl, pH 7.5, 250 mM NaCl). The final concentrations of enzyme protein and Pro-Phe-Arg-AMC in the reaction mixture were 10 nM and 60 µM, respectively. The starting concentration of the positive reference substance Avoralstat was 100 nM, 3-fold dilution, 10 + 0 dose. 0.05 µL of compound in 100% DMSO was delivered to a 384-well plate by an acoustic liquid delivery technique (Echo665; nanoliter range). Compound duplex test. 5 µL of 2 × enzyme solution was transferred to a 384 reaction plate and centrifuged at 1000 rpm for 1 minute, incubated at 25°C for 15 minutes; 5 µL of 2 × Pro-Phe-Arg-AMC solution was transferred to a 384 reaction plate, centrifuged at 1000 rpm for 1 minute, incubated at 25°C for 3 hours. […] IC50 values and nonlinear regression curve fitting were obtained using GraphPad Prism software.

Another test deals with KLK1 (Homo sapiens, UniProt P06870). The test can be described thus: Inhibitory activity against KLK1 in vitro (biochemical assay). Particulars: values given in µM. From the text:
Test Example 1. Test of the inhibitory activities of the compounds of the present invention against plasma kallikrein (PKa), KLK1 and FXIa in vitro. […]

Setting [1] is: plasma kallikrein enzyme assay, Pro-Phe-Arg-AMC substrate, read-out: PKa IC50.

Sequence of FXIa (P03951 388-625 limits assumed): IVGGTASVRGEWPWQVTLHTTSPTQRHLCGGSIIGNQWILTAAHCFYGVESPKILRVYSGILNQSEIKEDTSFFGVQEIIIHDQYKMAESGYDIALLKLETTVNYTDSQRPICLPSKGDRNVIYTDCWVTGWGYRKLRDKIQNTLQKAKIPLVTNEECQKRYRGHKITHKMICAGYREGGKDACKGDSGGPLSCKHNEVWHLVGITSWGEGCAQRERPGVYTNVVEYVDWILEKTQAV
Sequence of FXIa (P03951 19-387 partner limits assumed): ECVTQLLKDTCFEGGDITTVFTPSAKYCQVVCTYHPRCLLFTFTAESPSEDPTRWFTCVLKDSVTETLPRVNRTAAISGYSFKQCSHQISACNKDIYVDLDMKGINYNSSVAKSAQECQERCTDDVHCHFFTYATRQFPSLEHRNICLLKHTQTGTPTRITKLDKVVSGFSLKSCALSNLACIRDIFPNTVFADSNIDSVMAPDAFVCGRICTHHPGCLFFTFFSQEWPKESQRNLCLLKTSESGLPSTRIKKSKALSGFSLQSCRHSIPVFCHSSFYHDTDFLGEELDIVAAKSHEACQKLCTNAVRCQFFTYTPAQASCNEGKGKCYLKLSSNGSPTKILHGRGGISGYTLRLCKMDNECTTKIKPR
Sequence of KLK1 (P06870 25-262, species assumed): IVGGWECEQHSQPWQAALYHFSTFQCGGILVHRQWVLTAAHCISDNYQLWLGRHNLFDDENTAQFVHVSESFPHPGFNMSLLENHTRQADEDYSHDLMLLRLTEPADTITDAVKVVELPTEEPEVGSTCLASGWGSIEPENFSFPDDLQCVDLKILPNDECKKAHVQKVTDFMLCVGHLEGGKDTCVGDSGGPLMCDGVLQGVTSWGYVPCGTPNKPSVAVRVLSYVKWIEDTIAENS
T1 sequence (P03952 391-638 limits assumed): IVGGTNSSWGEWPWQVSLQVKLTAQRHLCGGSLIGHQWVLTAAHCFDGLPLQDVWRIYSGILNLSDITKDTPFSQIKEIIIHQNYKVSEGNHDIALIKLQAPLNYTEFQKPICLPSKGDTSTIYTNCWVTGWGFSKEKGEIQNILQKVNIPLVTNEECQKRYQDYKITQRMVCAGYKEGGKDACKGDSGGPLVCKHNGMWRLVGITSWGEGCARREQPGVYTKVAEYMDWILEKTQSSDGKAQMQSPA
T1 sequence (P03952 20-390 partner limits assumed): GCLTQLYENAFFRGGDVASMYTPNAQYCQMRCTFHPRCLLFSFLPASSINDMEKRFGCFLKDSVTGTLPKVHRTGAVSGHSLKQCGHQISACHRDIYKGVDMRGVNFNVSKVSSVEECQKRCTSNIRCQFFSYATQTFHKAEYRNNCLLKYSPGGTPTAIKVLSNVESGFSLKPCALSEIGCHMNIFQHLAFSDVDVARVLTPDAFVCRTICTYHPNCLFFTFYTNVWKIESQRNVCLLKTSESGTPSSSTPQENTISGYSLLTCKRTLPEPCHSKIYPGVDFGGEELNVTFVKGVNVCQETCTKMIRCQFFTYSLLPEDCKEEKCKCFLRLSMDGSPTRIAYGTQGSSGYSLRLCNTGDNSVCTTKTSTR

For `CN1CCc2cnc(CNC(=O)c3cnn(Cc4ccc(Cn5ccccc5=O)cc4)c3)c(F)c21` [Compound 383], the 50% inhibitory concentration (IC50) on plasma kallikrein (PKa) (PKa IC50, plasma kallikrein enzyme assay, Pro-Phe-Arg-AMC substrate) is 1.39 nM; against FXIa it was more than 10 µM; on KLK1, more than 10 µM.
Regarding `O=C(NCc1ncc2cc[nH]c2c1F)c1cnn(Cc2ccc(Cn3ccccc3=O)cc2)c1` [Compound 362, N-((7-fluoro-1H-pyrrolo[3,2-c]pyridin-6-yl)methyl)-1-(4-((2-oxopyridin-1(2H)-yl)methyl)benzyl)-1H-pyrazole-4-carboxamide], the half-inhibitory concentration (IC50) on plasma kallikrein (PKa) (setting [1]) was 2.57 nM; against FXIa it was more than 10 µM; against KLK1, more than 10 µM.
On to `COc1ccnc(CNC(=O)c2cn(Cc3ccc(Cn4ccccc4=O)cc3)nc2CN2CCN(C)CC2)c1F` [Compound 213], for which the IC50 on plasma kallikrein (PKa) (setting [1]) is 35 nM; at FXIa it was more than 10 µM; at KLK1, more than 10 µM.
As for `Cc1cc(N)nc(C)c1CNC(=O)c1csc(Cc2ccc(Cn3ccccc3=O)cc2)n1` [Compound 68], the IC50 at plasma kallikrein (PKa) (setting [1]) is 0.32 nM; against FXIa, more than 10 µM; against KLK1, more than 10 µM.
On to `N=C(N)c1ccc(CNC(=O)c2cnn(Cc3ccc(OCC4CC4)c(C(F)(F)F)c3)c2)cc1` [Compound 385], for which the IC50 at plasma kallikrein (PKa) (setting [1]) is 0.88 nM; against FXIa, more than 10 µM; against KLK1 it was more than 10 µM.
On to `N=C(N)c1ccc(CNC(=O)c2cnn(Cc3ccc(CC4CC4)cc3)c2)cc1F` [Compound 321], for which the IC50 on plasma kallikrein (PKa) (setting [1]) is 2.71 nM; against FXIa it was more than 10 µM; against KLK1, more than 10 µM.
In the case of `COCc1cn(Cc2ccc(Cn3ccccc3=O)cc2)nc1C(=O)NCc1c(C)cc(N)nc1C` [Compound 60], the IC50 was 0.65 nM on plasma kallikrein (PKa) (setting [1]), more than 10 µM against FXIa and more than 10 µM at KLK1.
Regarding `COCc1nn(Cc2ccc(Cn3ccccc3=O)cc2)cc1C(=O)NCc1c(C)cc2nccn2c1C` [Compound 143], the results for the concentration for half-maximal inhibition (IC50) on plasma kallikrein (PKa) (setting [1]), at FXIa and at KLK1 were 0.65 nM, more than 10 µM and more than 10 µM, respectively.
Take `O=C(NCc1cc2ccncc2[nH]1)c1cn(Cc2ccc(Cn3ccccc3=O)cc2)nc1C(F)(F)F` [Compound 155]: the results for the IC50 at plasma kallikrein (PKa) (setting [1]), on FXIa and against KLK1 were 1.48 nM, more than 10 µM and more than 10 µM, respectively.
`Cc1cc(N)nc(C)c1CNC(=O)c1ncn(Cc2ccc(Cn3cccc(C)c3=O)cc2)n1` [Compound 56]: the IC50 was 0.16 nM on plasma kallikrein (PKa) (setting [1]), more than 10 µM on FXIa and more than 10 µM against KLK1.
Regarding `Cc1cc2nccn2c(C)c1CNC(=O)c1cn(Cc2ccc(Cn3ccccc3=O)cc2)nc1C(F)(F)F` [Compound 142, N-((5,7-dimethylimidazo[1,2-a]pyridin-6-yl)methyl)-1-(4-((2-oxopyridin-1(2H)-yl)methyl]benzyl)-3-(trifluoromethyl)-1H-pyrazole-4-carboxamide], the IC50 on plasma kallikrein (PKa) (setting [1]) is 0.35 nM; against FXIa, more than 10 µM; against KLK1, more than 10 µM.
With `Cc1cc(N)nc(C)c1CNC(=O)c1nnn(Cc2ccc(Cn3ccccc3=O)cc2)n1` [Compound 55], the IC50 was 0.16 nM on plasma kallikrein (PKa) (setting [1]), more than 10 µM against FXIa and more than 10 µM on KLK1.
For the molecule `COCc1cn(Cc2ccc(CN3CCCCC3=O)cc2)nc1C(=O)NCc1c(C)cc(N)nc1C` [Compound 74], the IC50 at plasma kallikrein (PKa) (setting [1]) was 5.7 nM; against FXIa it was more than 10 µM; against KLK1, more than 10 µM.
In the case of `N=C(N)c1ccc(CNC(=O)c2cnn(Cc3cc(F)c(CC4CC4)c(F)c3)c2)cc1` [Compound 380], the IC50 on plasma kallikrein (PKa) (setting [1]) is 0.27 nM; against FXIa it was more than 10 µM; against KLK1, more than 10 µM.
As for `CCc1cc(N2CC3C(C2)C3(F)F)ccc1Cn1cc(C(=O)NCc2ccc(C(=N)N)cc2)cn1` (stereo not shown) [Compound 16], the values for the IC50 on plasma kallikrein (PKa) (setting [1]), against FXIa and at KLK1 were 1.24 nM, more than 10 µM and more than 10 µM, respectively.
As for `N#Cc1cc(N2CCC(F)(F)CC2)ccc1Cn1cc(C(=O)NCc2ccc(C(=N)N)cc2)cn1` [Compound 158], the 50% inhibitory concentration (IC50) on FXIa and against KLK1 was more than 10 µM throughout.
For the molecule `Cc1cc(N)nc(C)c1CNC(=O)c1ncn(Cc2c(F)c(F)c(Cn3ccccc3=O)c(F)c2F)n1` [Compound 22], the values for the half-inhibitory concentration (IC50) at plasma kallikrein (PKa) (setting [1]), at FXIa and on KLK1 were 0.63 nM, more than 10 µM and more than 10 µM, respectively.
Take `COCc1nn(Cc2ccc(CC3CC3)cc2)cc1C(=O)NCc1ccc(C(=N)N)cc1` [Compound 121]: the concentration for half-maximal inhibition (IC50) at plasma kallikrein (PKa) (setting [1]) was 0.48 nM; on FXIa it was more than 10 µM; against KLK1 it was more than 10 µM.
`Cc1cc(N)nc(C)c1CNC(=O)c1cnn(Cc2ccc3ncc(Cl)cc3c2)c1` [Compound 10, N-((6-amino-2,4-dimethylpyridin-3-yl)methyl)-1-((3-chloroquinolin-6-yl)methyl)-1H-pyrazole-4-carboxamide]: the IC50 at plasma kallikrein (PKa) (setting [1]) is 0.132 nM; against FXIa, more than 10 µM; on KLK1 it was more than 10 µM.
On to `Cc1cc(C(=N)N)cc(C)c1CNC(=O)c1cnn(Cc2ccc(Cn3ccccc3=O)cc2)c1` [Compound 314], for which the IC50 on plasma kallikrein (PKa) (setting [1]) was 0.32 nM; at FXIa, more than 10 µM; at KLK1 it was more than 10 µM.
In the case of `COCc1nn(Cc2ccc(Cn3ccccc3=O)cc2)cc1C(=O)NCc1ncc2c(c1F)N(C)CC2` [Compound 146], the IC50 against FXIa and at KLK1 was more than 10 µM throughout.
For `Cc1cc(N)nc(C)c1CNC(=O)c1cnn(Cc2ccc(N3CC4C(C3)C4(F)F)cc2C#N)c1` (stereo not shown) [Compound 20], the figures for the half-inhibitory concentration (IC50) at plasma kallikrein (PKa) (read-out: PKa IC50) and at FXIa were 0.155 nM and more than 10 µM, respectively.
`COc1ccnc(CNC(=O)c2cn(Cc3ccc(Cn4ccccc4=O)cc3)nc2-c2c(C)cnn2C)c1F` [Compound 221, N-((3-fluoro-4-methoxypyridin-2-yl)methyl)-2',4'-dimethyl-1-(4-((2-oxopyridin-1(2H)yl)methyl)benzyl)-1H,2'H-[3,3'-bispyrazole]-4-carboxamide]: the half-maximal inhibitory concentration (IC50) against FXIa and on KLK1 was more than 10 µM throughout.
`COCc1nn(Cc2ccc(Cn3ccccc3=O)cc2)cc1C(=O)NCc1nccc(OC)c1F` [KVD900, reference compound]: the 50% inhibitory concentration (IC50) on FXIa and at KLK1 was more than 10 µM in each case.
`COc1ccnc(CNC(=O)c2cn(Cc3ccc(Cn4ccccc4=O)cc3)nc2CN2CCC(OC)CC2)c1F` [Compound 201]: the IC50 on plasma kallikrein (PKa) (setting [1]) is 10.8 nM.
`COc1ccnc(CNC(=O)c2cn(Cc3ccc(Cn4ccccc4=O)cc3)nc2CN2CC3(COC3)C2)c1F` [Compound 238]: on plasma kallikrein (PKa) (setting [1]), the half-maximal inhibitory concentration (IC50) stood at 9.15 nM.
The same measure, in the same setting: as for `COCc1nn(Cc2ccc(Cn3ccccc3=O)cc2)cc1C(=O)NCc1nc2c(s1)CNCC2` [Compound 152], the figure is 594 nM; as for `COc1ccnc(CNC(=O)c2cn(Cc3ccc(Cn4ccccc4=O)cc3)nc2N2CCOCC2)c1F` [Compound 224], 28.2 nM.
The same measure, in the same setting: for `COc1ccnc(CNC(=O)c2cn(Cc3ccc(Cn4ccccc4=O)cc3)nc2COCC2(F)COC2)c1F` [Compound 235, N-((3-fluoro-4-methoxypyridin-2-yl)methyl)-3-((3-fluorooxetan-3-yl)methoxy)methyl] the value was 3.33 nM; for `O=C(NCc1nccc(C2CC2)c1F)c1cn(Cc2ccc(CC3CC3)cc2)nc1C1COC1` [Compound 343], more than 1000 nM.
Same read-out and setting: as for `Nc1nnc(CNC(=O)c2cnn(Cc3ccc(Cn4ccccc4=O)cc3)c2)s1` [Compound 30], the figure is more than 1000 nM; as for `COc1ccnc(CNC(=O)c2cn(Cc3ccc(Cn4ccccc4=O)cc3)nc2COC2COC2)c1F` [Compound 249], 7.89 nM; as for `COCc1nn(Cc2ccc(Cn3c(=O)ccc4ccccc43)cc2)cc1C(=O)NCc1nccc(OC)c1F` [Compound 159], 93.8 nM.
In the case of `COCc1nn(Cc2ccc(Oc3ccccc3)cc2)cc1C(=O)NCc1ccn2ccnc2c1` [Compound 141], on plasma kallikrein (PKa) (setting [1]), the concentration for half-maximal inhibition (IC50) is more than 1000 nM.
The same measure, in the same setting: for `COc1ccc(Cl)c(CNC(=O)c2cn(Cc3ccc(Cn4ccccc4=O)cc3)nc2N2CC(F)(F)C2)c1F` [Compound 290] the value was 4.62 nM; for `N=C(N)c1ccc(CNC(=O)c2cnn(Cc3ccc(CC4CC4)cc3)c2)nc1` [Compound 243], 14.3 nM; for `Cc1cc2ncnn2c(C)c1CNC(=O)c1cn(Cc2ccc(Cn3ccccc3=O)cc2)nc1C(F)(F)F` [Compound 206], 318 nM.
Still for that read-out and setting: for `COc1ccc(F)c(CNC(=O)c2cn(Cc3ccc(Cn4ccccc4=O)cc3)nc2COC2CCC2)c1F` [Compound 240] the value was 12.6 nM.
Regarding `CC(C)Cc1ccc(Cn2cc(C(=O)NCc3ccc(C(=N)N)cc3)cn2)cc1` [Compound 312], the 50% inhibitory concentration (IC50) at plasma kallikrein (PKa) (setting [1]) was 2 nM.
On to `CN(C)c1ccnc(CNC(=O)c2cn(Cc3ccc(CC4CC4)cc3)nc2C2COC2)c1F` [Compound 334], for which the IC50 at plasma kallikrein (PKa) (setting [1]) was found to be 421 nM.
With `O=C(NCc1cc2cnccc2[nH]1)c1cn(Cc2ccc(Oc3ccccc3)cc2)nc1C(F)(F)F` [Compound 115], the IC50 on plasma kallikrein (PKa) (setting [1]) was more than 100 nM.
Regarding `COc1ccc(F)c(CNC(=O)c2cn(Cc3ccc(Cn4ccccc4=O)cc3)nc2COCCN2CCCC2)c1F` [Compound 230], the IC50 on plasma kallikrein (PKa) (setting [1]) is 9.8 nM.
